Measurements: patent US10191057B2, “Methods of diagnosing, classifying and treating endometrial cancer and precancer” (THE TRANSLATIONAL GENOMICS RESEARCH INSTITUTE, priority 2007, dated 2019)

Assays:
[1] = system: AN3CA cells (N550K FGFR2 mutation); assay: SRB cell proliferation/viability assay, AN3CA; type: cell-based; conditions: Homo sapiens, AN3-CA, read-out: PD173074 IC50, cell viability, SRB assay 72 hours after addition, full growth medium
[2] = system: MFE296 cells (N550K FGFR2 mutation); assay: SRB cell proliferation/viability assay, MFE296; type: cell-based; conditions: Homo sapiens, MFE-296, read-out: PD173074 IC50, cell viability; MFE296, SRB assay 72 hours after addition, full growth medium
Experimental: (§1) Cells were plated at a density of 4×10^5 cells per well in a 6 well plate. The next day, cells were infected with lentiviral stocks in the presence of 6 μg/ml polybrene (Sigma-Aldrich, St. Louis, Mo.). Empty vector and nonsilencing shRNA infections were used as controls for each experiment. […] Growth Inhibition Assay Twenty-four hours after infection, cells were trypsinized and plated in 96 well plates in full growth medium at a density of 5,000 cells per well, in triplicate, and proliferation assessed using the Sulforhodamine B (SRB) assay (Sigma-Aldrich, St. Louis, Mo.). […] The protein-bound dye was dissolved in 10 mM Tris base solution, and absorbance measured at 510 nm. […] 48 hours after transfection, floating and attached cells were collected, washed in cold PBS, resuspended in Annexin binding buffer (10 mM Hepes (pH 7.4), 140 mM NaCl, 2.5 mM CaCl2), stained with 500 ng/mL annexinV-FITC and 1 μg/mL propidium iodide (Sigma-Aldrich, St. Louis, Mo.), and analyzed for annexin positive cells using a CyAn ADP flow cytometer and Summit software, version 4.3 (Dako Cytomation, Carpinteria, Calif.). […] 72 hours later, cells were stained with propidium iodide as described {Krishan, 1975 #28} and analyzed by flow cytometry. […] FGFR2 expression was detected with BekC17 antibody (Santa Cruz Biotechnology, Inc., Santa Cruz, Calif.). […]

[3] = system: HEC1A cells (wildtype FGFR2); assay: SRB cell viability assay, HEC1A; type: cell-based; conditions: Homo sapiens, HEC-1-A, read-out: PD173074 IC50, cell viability, SRB assay 72 hours after addition, full growth medium
Experimental: as §1

[4] = system: Ishikawa cells (wildtype FGFR2); assay: SRB cell viability assay, Ishikawa; type: cell-based; conditions: Homo sapiens, read-out: PD173074 IC50, cell viability, SRB assay 72 hours after addition, full growth medium
Experimental: as §1

[5] = system: KLE cells (wildtype FGFR2); assay: SRB cell viability assay, KLE; type: cell-based; conditions: Homo sapiens, read-out: PD173074 IC50, cell viability, SRB assay 72 hours after addition, full growth medium
[6] = system: RL952 cells (wildtype FGFR2); assay: SRB cell viability assay, RL952; type: cell-based; conditions: Homo sapiens, RL95-2, read-out: PD173074 IC50, cell viability; RL952, SRB assay 72 hours after addition, full growth medium
Experimental: as §1

AN3CA cells [7] = assay: Annexin V-FITC labeling of apoptotic cells, AN3CA; type: cell-based, human
Experimental: as §1

MFE296 cells [8] = assay: Annexin V-FITC labeling of apoptotic cells, MFE296; type: cell-based, human; conditions: MFE296, data not shown
Experimental: as §1

AN3CA cells [9] = assay: Cell cycle analysis (propidium iodide, flow cytometry), AN3CA; type: cell-based, human; conditions: 1 μM, 72 hrs
Experimental: as §1

MFE296 cells [10] = assay: Cell cycle analysis, MFE296; type: cell-based, human; conditions: MFE296, data not shown
Experimental: as §1

ERK1/2 = assay: Western blot, activation of ERK1/2; type: cell-based, human
Experimental: (§2) Cells were plated at a density of 4×10^5 cells per well in a 6 well plate. The next day, cells were infected with lentiviral stocks in the presence of 6 μg/ml polybrene (Sigma-Aldrich, St. Louis, Mo.). Empty vector and nonsilencing shRNA infections were used as controls for each experiment. […] Growth Inhibition Assay Twenty-four hours after infection, cells were trypsinized and plated in 96 well plates in full growth medium at a density of 5,000 cells per well, in triplicate, and proliferation assessed using the Sulforhodamine B (SRB) assay (Sigma-Aldrich, St. Louis, Mo.). At the indicated time points, wells were fixed with 10% (wt/vol) trichloroacetic acid, stained with SRB for 30 min, and washed with 1% (vol/vol) acetic acid. The protein-bound dye was dissolved in 10 mM Tris base solution, and absorbance measured at 510 nm. […] Annexin V-FITC Labeling of Apoptotic Cells Annexin V-FITC staining was used to measure phosphatidylserine exposure on cells undergoing apoptosis, according to the manufacturer's instructions (BioVision, Inc. Mountain View, Calif.). […] 2.5×10^5 cells were plated per well in a 6 well plate. Twenty-four hours later, cells were transfected with 25 nM nonsilencing (NS) siRNA or FGFR2 siRNA X2 using Lipofectamine 2000 transfection reagent. The siRNA duplex was allowed to form a complex with Lipofectamine 2000 for 20 minutes at room temperature, and transfection carried out at 37° C. for 24 hours. 48 hours after transfection, floating and attached cells were collected, washed in cold PBS, resuspended in Annexin binding buffer (10 mM Hepes (pH 7.4), 140 mM NaCl, 2.5 mM CaCl2), stained with 500 ng/mL annexinV-FITC and 1 μg/mL propidium iodide (Sigma-Aldrich, St. Louis, Mo.), and analyzed for annexin positive cells using a CyAn ADP flow cytometer and Summit software, version 4.3 (Dako Cytomation, Carpinteria, Calif.). […] Cell Cycle Analysis Cells were plated at a density of 1×10^5 cells per well in a 6 well plate. […] 72 hours later, cells were stained with propidium iodide as described {Krishan, 1975 #28} and analyzed by flow cytometry. Cell cycle analysis was performed using ModFit software (Verity Software House, Inc. Topsham, Me.). Western Blot Analysis Cells were plated in 60 mm^2 dishes at a density of 2×10^6 cells per dish. […] Cells were washed in ice cold PBS, lysed in kinase buffer [20 mM Hepes pH7.4, 2 mM EGTA, 1% Triton X100, 10% glycerol, 1 mM Na3VO4, 1 mM NaF, 100 uM AEBSF, and 1 tablet/10 mL of Mini Complete Protease Inhibitor (Roche Molecular Biochemicals, Indianapolis, Ind.)], briefly sonicated on ice, and protein concentrations estimated using Quick Start Bradford Reagent with bovine gamma-globulin standards (Bio-Rad Laboratories, Hercules, Calif.). Equal amounts of protein were separated by SDS-PAGE on 4-12% gradient gels and transferred to polyvinylidene difluoride membranes (Invitrogen, Carlsbad, Calif.). Membranes were immunoblotted with antibodies to phosphorylated and total AKT, ERK1/2, p38, STAT-3 and STAT-5, PLCγ and total PTEN (Cell Signaling Technology, Beverly, Mass.). FGFR2 expression was detected with BekC17 antibody (Santa Cruz Biotechnology, Inc., Santa Cruz, Calif.). Horseradish peroxidase-conjugated goat anti-mouse or anti-rabbit secondary antibodies (Biomeda, Foster City, Calif.), were used, followed by chemiluminescence staining. For shRNA studies, lysates were collected 48 hours after shRNA transduction and processed as described above. Statistical Analysis

AKT = assay: Western blot, activation of AKT; type: cell-based, human; conditions: for AKT activation: HEC1A
Experimental: as §2

STAT3 = assay: Western blot, activation of STAT3; type: cell-based, human; conditions: 10% FBS
Experimental: as §2

p38 = assay: Western blot, activation of p38; type: cell-based, human; conditions: 10% FBS
Experimental: as §2

PLCγ = assay: Western blot, activation of PLCγ; type: cell-based, human; conditions: following PD173074 treatment, data not shown
Experimental: as §1

VEGFR2 = VEGFR2 (Homo sapiens, UniProt P35968); conditions: cited from earlier work
[11] = system: myeloma cells with an activating t(4; 14) translocation and activating mutations in FGFR3; conditions: t(4; 14) translocation and activating FGFR3 mutations; cited from earlier work
[12] = system: AN3CA (FGFR2 N550K mutant) xenograft tumors; assay: AN3CA xenograft tumor growth; conditions: 25 mg/kg twice daily by oral gavage
Experimental: (§3) Briefly, mice were inoculated subcutaneously with 0.1 ml of a 50% RPMI/50% Matrigel™ mixture containing a suspension of tumor cells (1×10^7 cells/mouse). […] Tumor weight measurements were recorded three times a week.

[13] = system: Hec1A (FGFR2 wild type) xenograft tumors; assay: Hec1A xenograft tumor growth; conditions: 25 mg/kg twice daily by oral gavage
Experimental: as §3

[14] = AN3CA, 1 μM, 0 to 72 hours, 0.2% FBS
[15] = AN3CA, 1 μM, 0 to 72 hours, 10% FBS
[16] = AN3CA, increasing concentrations, 3 hours, 10% FBS
[17] = MFE296, 1 μM, 0 to 72 hours, 0.2% FBS
[18] = MFE296, 1 μM, 0 to 72 hours, 10% FBS
[19] = MFE296, increasing concentrations, 3 hours, 10% FBS
[20] = AN3CA, increasing concentrations, 3 hours
[21] = HEC1A, increasing concentrations, 3 hours
[22] = MFE296, increasing concentrations, 3 hours

VEGFR2, sequence (P35968 20-1356, species assumed): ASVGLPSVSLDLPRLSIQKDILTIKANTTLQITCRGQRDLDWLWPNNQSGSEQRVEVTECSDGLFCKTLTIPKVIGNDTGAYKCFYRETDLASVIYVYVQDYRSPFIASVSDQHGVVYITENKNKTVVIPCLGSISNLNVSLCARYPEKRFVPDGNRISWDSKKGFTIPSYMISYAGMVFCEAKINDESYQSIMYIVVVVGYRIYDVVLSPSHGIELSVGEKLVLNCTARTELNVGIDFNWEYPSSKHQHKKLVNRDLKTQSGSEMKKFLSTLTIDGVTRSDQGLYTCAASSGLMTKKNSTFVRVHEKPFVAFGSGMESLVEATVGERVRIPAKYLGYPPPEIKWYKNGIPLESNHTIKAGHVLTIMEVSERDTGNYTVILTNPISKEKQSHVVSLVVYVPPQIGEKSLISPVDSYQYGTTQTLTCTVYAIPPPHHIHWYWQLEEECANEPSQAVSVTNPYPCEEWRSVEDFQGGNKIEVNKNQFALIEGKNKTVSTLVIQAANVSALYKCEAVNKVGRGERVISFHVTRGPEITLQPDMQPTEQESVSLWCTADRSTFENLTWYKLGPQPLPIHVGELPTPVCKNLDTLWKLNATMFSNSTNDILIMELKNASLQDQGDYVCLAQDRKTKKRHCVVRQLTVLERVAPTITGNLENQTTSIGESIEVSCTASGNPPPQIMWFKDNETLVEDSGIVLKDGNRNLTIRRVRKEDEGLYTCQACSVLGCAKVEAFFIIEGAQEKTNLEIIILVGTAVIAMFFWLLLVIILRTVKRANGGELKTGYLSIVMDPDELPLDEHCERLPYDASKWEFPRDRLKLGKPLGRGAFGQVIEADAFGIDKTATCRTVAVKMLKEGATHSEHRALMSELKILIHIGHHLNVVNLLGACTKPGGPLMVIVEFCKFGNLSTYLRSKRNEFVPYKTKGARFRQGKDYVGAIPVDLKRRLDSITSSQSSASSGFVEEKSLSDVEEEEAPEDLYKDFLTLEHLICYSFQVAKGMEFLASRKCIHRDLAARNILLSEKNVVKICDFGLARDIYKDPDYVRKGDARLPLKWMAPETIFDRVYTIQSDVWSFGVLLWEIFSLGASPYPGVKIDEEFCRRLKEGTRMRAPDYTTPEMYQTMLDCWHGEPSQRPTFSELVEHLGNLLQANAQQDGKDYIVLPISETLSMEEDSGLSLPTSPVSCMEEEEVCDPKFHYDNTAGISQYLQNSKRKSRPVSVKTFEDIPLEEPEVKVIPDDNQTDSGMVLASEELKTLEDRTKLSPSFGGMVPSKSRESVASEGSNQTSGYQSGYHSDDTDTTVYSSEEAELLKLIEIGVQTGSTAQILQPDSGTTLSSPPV

## CCN(CC)CCCCNc1ncc2cc(-c3cc(OC)cc(OC)c3)c(NC(=O)NC(C)(C)C)nc2n1 [PD173074]
[1]
  IC50: 61.7 nM
[2]
  IC50: 284 nM
[3]
  IC50: > 3000 nM
[4]
  IC50: 2920 nM
[5]
  IC50: > 1000 nM
[6]
  IC50: > 1000 nM
AN3CA cells [7]; 1 μM, 48, 72 or 96 hours
  Annexin-V staining compared to DMSO: increase in Annexin-V staining
AN3CA cells [7]; 1 μM, 96 hours after drug treatment
  cells undergoing apoptosis (Annexin V-FITC labeling): ~70%
MFE296 cells [8]
  Annexin V staining: did not result in enhanced Annexin V staining
AN3CA cells [9]
  cell cycle effect: G1 cell cycle arrest
MFE296 cells [10]
  cell cycle effect: induced cell cycle arrest
ERK1/2; [14]
  ERK1/2 activation: suppression of ERK1/2 activation
ERK1/2; [15]
  ERK1/2 activation: suppression of ERK1/2 activation
ERK1/2; [16]
  ERK1/2 activation: suppression of ERK1/2 activation
ERK1/2; HEC1A, 1 μM, 0 to 72 hours, 0.2% FBS
  ERK1/2 activation: no effect
ERK1/2; HEC1A, 1 μM, 0 to 72 hours, 10% FBS
  ERK1/2 activation: no effect
ERK1/2; HEC1A, increasing concentrations, 3 hours, 10% FBS
  ERK1/2 activation: no effect
ERK1/2; [17]
  ERK1/2 activation: suppression of ERK1/2 activation
ERK1/2; [18]
  ERK1/2 activation: suppression of ERK1/2 activation
ERK1/2; [19]
  ERK1/2 activation: suppression of ERK1/2 activation
AKT; [14]
  AKT phosphorylation: modest suppression of AKT phosphorylation
AKT; [15]
  AKT phosphorylation: partial suppression of AKT phosphorylation
AKT; [16]
  AKT phosphorylation: modest suppression of AKT phosphorylation
AKT; 1 μM, 0 to 72 hours, 0.2% FBS
  AKT activation: no effect
AKT; 1 μM, 0 to 72 hours, 10% FBS
  AKT activation: no effect
AKT; increasing concentrations, 3 hours, 10% FBS
  AKT activation: no effect
AKT; [17]
  AKT phosphorylation: modest suppression of AKT phosphorylation
AKT; [18]
  AKT phosphorylation: partial suppression of AKT phosphorylation
AKT; [19]
  AKT phosphorylation: modest suppression of AKT phosphorylation
STAT3; AN3CA, 1 μM, 0 to 72 hours
  STAT3 activation: no effect
STAT3; [20]
  STAT3 activation: no effect
STAT3; HEC1A, 1 μM, 0 to 72 hours
  STAT3/5 activation: no effect
STAT3; [21]
  STAT3 activation: no effect
STAT3; MFE296, 1 μM, 0 to 72 hours
  STAT3 activation: no effect
STAT3; [22]
  STAT3 activation: no effect
p38; AN3CA, 1 μM, 0 to 72 hours
  p38 activation: no effect
p38; [20]
  p38 activation: no effect
p38; HEC1A, 1 μM, 0 to 72 hours
  p38 activation: no effect
p38; [21]
  p38 activation: no effect
p38; MFE296, 1 μM, 0 to 72 hours
  p38 activation: no effect
p38; [22]
  p38 activation: no effect
PLCγ
  PLCγ activation: no change
VEGFR2
  IC50: ~100 nM
[11]
  apoptosis in myeloma cells: induce apoptosis
[12]
  growth of xenograft tumors: suppressed growth of all eight
  tumors with tumor regression: six of the eight
[12]; regressing tumors
  mean tumor shrinkage: 51%
[13]
  effect on xenograft tumors: minimal effect
